Reference: patent US6881741B2 (ViroChem Pharma Inc., priority 2001, dated 2005)

These molecules were tested against recombinant HCV NS5B (HCV RNA-dependent RNA polymerase) (Hepatitis C virus genotype 1b, UniProt P26663) (assay: biochemical). Conditions: HCV polymerase activity, list of compounds of Example 27; read-out: IC50 (polymerase activity).
recombinant HCV NS5B (HCV RNA-dependent RNA polymerase), sequence (P26663 2420-3010 limits assumed): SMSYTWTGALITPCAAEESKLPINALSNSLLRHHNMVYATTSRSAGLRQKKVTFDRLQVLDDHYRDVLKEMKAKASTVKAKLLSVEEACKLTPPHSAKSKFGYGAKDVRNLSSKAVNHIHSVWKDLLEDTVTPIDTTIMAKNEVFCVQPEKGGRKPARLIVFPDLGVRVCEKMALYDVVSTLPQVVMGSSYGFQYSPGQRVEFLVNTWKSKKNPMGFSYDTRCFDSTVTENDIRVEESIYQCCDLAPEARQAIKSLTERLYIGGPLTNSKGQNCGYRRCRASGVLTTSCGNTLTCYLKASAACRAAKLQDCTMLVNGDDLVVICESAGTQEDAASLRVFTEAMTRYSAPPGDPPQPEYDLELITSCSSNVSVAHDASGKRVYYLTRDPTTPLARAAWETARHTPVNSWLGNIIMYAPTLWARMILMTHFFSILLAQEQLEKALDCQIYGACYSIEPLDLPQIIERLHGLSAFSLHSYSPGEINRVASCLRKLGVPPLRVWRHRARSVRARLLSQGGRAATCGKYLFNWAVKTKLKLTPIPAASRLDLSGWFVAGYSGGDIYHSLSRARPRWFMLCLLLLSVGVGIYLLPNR

Compound | IC50
CC(C)C(=O)N(Cc1ccc(C(C)(C)C)cc1)c1cc(-c2ccccc2)sc1C(=O)O [Compound 437, 3-[(4-TERT-BUTYL-BENZYL)- ISOBUTYRYL-AMINO]-5-PHENYL- THIOPHENE-2-CARBOXYLIC ACID] | 5 to 20 µM
CC1CCC(C(=O)N(c2cc(-c3ccc(F)cc3)sc2C(=O)O)C(C)C)CC1 (stereo not shown) [Compound 559, 5-(4-FLUORO-PHENYL)-3-[ISOPROPYL-(4- METHYL-CYCLOHEXANECARBONYL)- AMINO]-THIOPHENE-2-CARBOXYLIC ACID] | < 5 µM
COCC(=O)N(Cc1ccc(F)cc1F)c1cc(-c2ccccc2)sc1C(=O)O [Compound 484, 3-[(2,4-DIFLUORO-BENZYL)-(2-METHOXY- ACETYL)-AMINO]-5-PHENYL-THIOPHENE- 2-CARBOXYLIC ACID] | 5 to 20 µM
CCCC(=O)N(Cc1cccc(OC)c1)c1cc(-c2ccccc2)sc1C(=O)O [Compound 475, 3-[BUTYRYL-(3-METHOXY-BENZYL)- AMINO]-5-PHENYL-THIOPHENE-2- CARBOXYLIC ACID] | 5 to 20 µM
CC1CCC(C(=O)N(c2cc(-c3ccccc3)sc2C(=O)O)C2CCCCC2)CC1 (stereo not shown) [Compound 579, 3-[CYCLOHEXYL-(4-METHYL- CYCLOHEXANECARBONYL)-AMINO]-5- PHENYL-THIOPHENE-2-CARBOXYLIC ACID] | < 5 µM
O=C(O)c1sc(-c2ccccc2)cc1N(C(=O)c1ccc(Cl)cc1Cl)C1CCCC[C@@H]1O (stereo in doubt) [Compound 538, 3-[(2,4-DICHLORO-BENZOYL)-(2- HYDROXY-CYCLOHEXYL)-AMINO]-5- PHENYL-THIOPHENE-2-CARBOXYLIC ACID] | < 5 µM
O=C(O)c1sc(-c2ccccc2)cc1N(Cc1ccccc1Cl)C(=O)C1CCC1 [Compound 425, 3-[(2-CHLORO-BENZYL)- CYCLOBUTANECARBONYL-AMINO]-5- PHENYL-THIOPHENE-2-CARBOXYLIC ACID] | 5 to 20 µM
CCN(CC)c1ncc(CN(C(=O)c2ccc(Cl)cc2Cl)c2cc(-c3ccccc3)sc2C(=O)O)s1 [Compound 557, 3-[(2,4-DICHLORO-BENZOYL)-(2- DIETHYLAMINO-THIAZOL-5-YLMETHYL)- AMINO]-5-PHENYL-THIOPHENE-2- CARBOXYLIC ACID] | < 5 µM
Cc1ccc(N(C)C(=O)c2cc(-c3ccccc3)sc2C(=O)O)cc1 [Compound 584, 3-(METHYL-P-TOLYL-CARBAMOYL)-5- PHENYL-THIOPHENE-2-CARBOXYLIC ACID] | 5 to 20 µM
O=C(O)c1sc(-c2ccccc2)cc1N(Cc1ccc(F)cc1F)C(=O)C1CCC1 [Compound 495, 3-[CYCLOBUTANECARBONYL-(2,4- DIFLUORO-BENZYL)-AMINO]-5-PHENYL- THIOPHENE-2-CARBOXYLIC ACID] | < 5 µM

Same assay, conditions: related polymerase activity (Example 27 list); read-out: IC50

Compound | IC50
CC(C)N(C(=O)C1CCCCC1)c1cc(-c2ccccc2)sc1C(=O)O [Compound 362, 3-(CYLCOHEXANECARBONYL- ISOPROPYL-AMINO)-5-PHENYL- THIOPHENE-2-CARBOXYLIC ACID] | 5 to 20 µM
C=CCCC(=O)N(C)c1cc(-c2ccccc2)sc1C(=O)O [Compound 386, 3-(METHYL-PENT-4-ENOYL-AMINO)-5- PHENYL-THIOPHENE-2-CARBOXYLIC ACID] | 5 to 20 µM
CN(C(=O)c1ccc(Cl)cc1)c1cc(-c2ccccc2)sc1C(=O)O [Compound 73, 3-[(4-CHLORO-BENZOYL)-METHYL-AMINO]-5-PHENYL-THIOPHENE-2-CARBOXYLIC ACID] | < 5 µM
CC(C)N(C(=O)c1ccccc1Cl)c1cc(-c2ccccc2)sc1C(=O)O [Compound 218, 3-[(2-CHLORO-BENZOYL)-ISOPROPYL-AMINO]-5-PHENYL-THIOPHENE-2-CARBOXYLIC ACID] | 5 to 20 µM
O=C(O)c1sc(-c2ccccc2)cc1NS(=O)(=O)c1ccc(F)c(F)c1 [Compound 143, 3-(3,4-DIFLUORO-BENZENESULFONYLAMINO)-5-PHENYL-THIOPHENE-2-CARBOXYLIC ACID] | < 5 µM
Cc1ccccc1S(=O)(=O)Nc1cc(-c2ccc(C(F)(F)F)cc2)sc1C(=O)O [Compound 88, 3-(TOLUENE-2-SULFONYLAMINO)-5-(4-TRIFLUOROMETHYL-PHENYL)-THIOPHENE-2-CARBOXYLIC ACID] | < 5 µM
CN(C(=O)c1ccc(C(F)(F)F)cc1)c1cc(-c2ccccc2)sc1C(=O)O [Compound 209, 3-[4-(TRIFLUOROMETHYL-BENZOYL)METHYLAMINE]-5-PHENYL-THIOPHENE-2-CARBOXYLIC ACID] | 5 to 20 µM
Cc1ccc(C(=O)N(C)c2cc(-c3cccc(C)c3)sc2C(=O)O)cc1 [Compound 268, 3-[METHYL-(4-METHYL-BENZOYL)-AMINO]-5-M-TOLYL-THIOPHENE-2-CARBOXYLIC ACID] | < 5 µM
O=C(O)c1sc(-c2ccccc2)cc1NS(=O)(=O)c1ccccc1F [Compound 30, 3-(2-FLUORO-BENZENESULFONYLAMINO)-5-PHENYL-THIOPHENE-2-CARBOXYLIC ACID] | 5 to 20 µM
Cc1ccccc1S(=O)(=O)Nc1cc(-c2ccc(C(=O)O)cc2)sc1C(=O)O [Compound 248, 5-(4-CARBOXY-PHENYL)-3-(TOLUENE-2-SULFONYLAMINO)-THIOPHENE-2-CARBOXYLIC ACID] | < 5 µM
Cc1ccc(C(=O)N(C)c2cc(-c3ccc(OC(F)(F)F)cc3)sc2C(=O)O)cc1 [Compound 216, 3-[METHYL-(4-METHYL-BENZOYL)-AMINO]-5-(4-TRIFLUOROMETHOXY-PHENYL)-THIOPHENE-2-CARBOXYLIC ACID] | 5 to 20 µM
CC(C)Cc1cc(N(C(=O)c2ccc(Cl)cc2Cl)C(C)C)c(C(=O)O)s1 [Compound 346, 3-[(2,4-DICHLORO-BENZOYL)- ISOPROPYL-AMINO]-5-ISOBUTYL- THIOPHENE-2-CARBOXYLIC ACID] | < 5 µM
CC(C)N(C(=O)c1ccc(F)cc1)c1cc(-c2ccccc2)sc1C(=O)O [Compound 226, 3-[(4-FLUORO-BENZOYL)-ISOPROPYL-AMINO]-5-PHENYL-THIOPHENE-2-CARBOXYLIC ACID] | 5 to 20 µM
CN(C(=O)c1cc(Cl)cc(Cl)c1)c1cc(-c2ccccc2)sc1C(=O)O [Compound 254, 3-[(3,5-DICHLORO-BENZOYL)-METHYL-AMINO]-5-PHENYL-THIOPHENE-2-CARBOXYLIC ACID] | 5 to 20 µM
CC(C)N(C(=O)c1ccc(Cl)nc1Cl)c1cc(-c2ccccc2)sc1C(=O)O [Compound 250, 3-[(2,6-DICHLORO-PYRIDINE-3-CARBONYL)-ISOPROPYL-AMINO]-5-PHENYL-THIOPHENE-2-CARBOXYLIC ACID] | 5 to 20 µM
Cc1ccc(-c2cc(NS(=O)(=O)c3cc(C)ccc3C)c(C(=O)O)s2)cc1 [Compound 118, 3-(2,5-DIMETHYL-BENZENESULFONYLAMINO)-5-P-TOLYL-THIOPHENE-2-CARBOXYLIC ACID] | < 5 µM
Cc1cc(C)c(C(=O)N(c2cc(-c3ccccc3)sc2C(=O)O)C(C)C)c(C)c1 [Compound 324, 3-[ISOPROPYL-(2,4,6-TRIMETHYL- BENZOYL)-AMINO]-5-PHENYL- THIOPHENE-2-CARBOXYLIC ACID] | 5 to 20 µM
Cc1ccccc1S(=O)(=O)Nc1cc(-c2cccc(F)c2)sc1C(=O)O [Compound 67, 5-(3-FLUORO-PHENYL)-3-(TOLUENE-2-SULFONYLAMINO)-THIOPHENE-2-CARBOXYLIC ACID] | < 5 µM
Cc1ccc(C(=O)N(C)c2cc(-c3ccccn3)sc2C(=O)O)cc1 [Compound 296, 3-[METHYL-(4-METHYL-BENZOYL)-AMINO]-5-PYRIDIN-2-YL-THIOPHENE-2-CARBOXYLIC ACID] | 5 to 20 µM
CC(C)CN(C(=O)c1ccc(Cl)cc1Cl)c1cc(-c2ccccc2)sc1C(=O)O [Compound 204, 3-[(2,4-DICHLORO-BENZOYL)-ISOBUTYL-AMINO]-5-PHENYL-THIOPHENE-2-CARBOXYLIC ACID] | < 5 µM
Cc1ccc(S(=O)(=O)Nc2cc(-c3ccccc3)sc2C(=O)O)cc1 [Compound 13, 5-PHENYL-3-(TOLUENE-4-SULFONYLAMINO)-THIOPHENE-2-CARBOXYLIC ACID] | < 5 µM
CN(C(=O)c1cc2ccccc2s1)c1cc(-c2ccccc2)sc1C(=O)O [Compound 251, 3-[(BENZO[B]THIOPHENE-2-CARBONYL)-METHYL-AMINO]-5-PHENYL-THIOPHENE-2-CARBOXYLIC ACID] | 5 to 20 µM
CN(C(=O)c1ccc(C(C)(C)C)cc1)c1cc(-c2ccccc2)sc1C(=O)O [Compound 247, 3-[(4-TERT-BUTYL-BENZOYL)-METHYL-AMINO]-5-PHENYL-THIOPHENE-2-CARBOXYLIC ACID] | 5 to 20 µM
CC(C)N(C(=O)c1ccc(Cl)cc1Cl)c1cc(-c2cccc(Cl)c2)sc1C(=O)O [Compound 294, 5-(3-CHLORO-PHENYL)-3-[(2,4-DICHLORO-BENZOYL)-ISOPROPYL-AMINO]-THIOPHENE-2-CARBOXYLIC ACID] | < 5 µM
Cc1ccc(C(=O)N(C)c2cc(-c3ccc(F)cc3F)sc2C(=O)O)cc1 [Compound 214, 5-(2,4-DIFLUORO-PHENYL)-3-[METHYL-(4-METHYL-BENZOYL)-AMINO]-THIOPHENE-2-CARBOXYLIC ACID] | 5 to 20 µM
Cc1ccc(S(=O)(=O)Nc2cc(-c3ccc(CO)cc3)sc2C(=O)O)c(C)c1 [Compound 320, 3-(2,4-DIMETHYL- BENZENESULFONYLAMINO)-5-(4- HYDROXYMETHYL-PHENYL)- THIOPHENE-2-CARBOXYLIC ACID] | < 5 µM
Cc1nn(C)c(Cl)c1S(=O)(=O)Nc1cc(-c2ccccc2)sc1C(=O)O [Compound 41, 3-(5-CHLORO-1,3-DIMETHYL-1H-PYRAZOLE-4-SULFONYLAMINO)-5-PHENYL-THIOPHENE-2-CARBOXYLIC ACID] | 5 to 20 µM
CCOC(=O)c1c(C)c(S(=O)(=O)Nc2cc(-c3ccccc3)sc2C(=O)O)c(-c2ccc(Cl)cc2)n1-c1ccccc1 [Compound 168, 4-(2-CARBOXY-5-PHENYL-THIOPHEN-3-YLSULFAMOYL)-5-(4-CHLORO-PHENYL)-3-METHYL-1-PHENYL-1H-PYRROLE-2-CARBOXYLIC ACID ETHYL ESTER] | 5 to 20 µM
CC1CCCCC1C(=O)N(c1cc(-c2ccccc2)sc1C(=O)O)C(C)C (stereo not shown) [Compound 378, 3-[ISOPROPYL-(2-METHYL- CYCLOHEXANECARBONYL)-AMINO]-5- PHENYL-THIOPHENE-2-CARBOXYLIC ACID] | 5 to 20 µM
C=CCN(C(=O)C1CCC1)c1cc(-c2ccccc2)sc1C(=O)O [Compound 398, 3-(ALLYL-CYCLOBUTANECARBONYL- AMINO)-5-PHENYL-THIOPHENE-2- CARBOXYLIC ACID] | > 20 µM
